Experimental data as given in patent publication US20230233569A1 (Revolution Medicines, Inc., priority 2020, published 2023).
Several values for one entry are separate records, joined by “and”; a condition that tells them apart may be missing. Identical values can stand only once. Like-named read-outs stand apart in the source and are kept apart here.

Legend:
[1] = test system: K-Ras G12C (NCI-H358 cells); assay: Potency assay: pERK (AlphaLISA SureFire or In-Cell Western); format: cell-based; conditions: Homo sapiens, NCI-H358
How it was run: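 NCI-H358 cells plated overnight, then treated 4 h at 37 °C with 10-point 3-fold DMSO dilutions (10 mM top stock), in duplicate. pERK1/2 read by AlphaLISA SureFire Ultra lysate assay or by In-Cell Western with DRAQ5 DNA stain. IC50 from 4-parameter sigmoidal fit of signal vs log concentration.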

KRAS G12C = KRAS G12C (Homo sapiens, UniProt P01116+P62937, G12C); assay: Disruption of BRAF RBD interaction with Ras (FRET / MOA assay, with Cyclophilin A); format: biochemical
How it was run: (§1)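 Here, compound titrations (ten points, factor 3, from 30 μM final) act on nucleotide-bound K-Ras and Cyclophilin A, and ternary complex formation disrupts the RAF RBD interaction.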

KRAS G12D = KRAS G12D (Homo sapiens, UniProt P01116+P62937, G12D); assay: as above; format: biochemical
How it was run: as §1

KRAS G12S = KRAS G12S (Homo sapiens, UniProt P01116+P62937, G12S); assay: as above; format: biochemical; conditions: read-out: KRAS G12S FRET data, IC50
How it was run: as §1

KRAS G12V = KRAS G12V (Homo sapiens, UniProt P01116+P62937, G12V); assay: as above; format: biochemical
How it was run: as §1

KRAS G13C = KRAS G13C (Homo sapiens, UniProt P01116+P62937, G13C); assay: as above; format: biochemical
How it was run: as §1

KRAS G13D = KRAS G13D (Homo sapiens, UniProt P01116+P62937, G13D); assay: as above; format: biochemical
How it was run: as §1

KRAS WT = KRAS WT (Homo sapiens, UniProt P01116+P62937); assay: as above; format: biochemical; conditions: KRAS WT; read-out: KRAS WT FRET data IC50
How it was run: as §1

NRAS G12C = NRAS G12C (Homo sapiens, UniProt P01111+P62937, G12C); assay: as above; format: biochemical; conditions: NRAS G12C; read-out: NRAS G12C FRET data IC50
[2] = read-out: KRAS G12D FRET data, IC50
[3] = KRAS G12V, read-out: KRAS G12V FRET data IC50
[4] = H358 KRAS G12C, read-out: pERK EC50
[5] = KRAS G12C, read-out: KRAS G12C FRET data IC50
[6] = KRAS G13C, read-out: KRAS G13C FRET data IC50
[7] = KRAS G13D, read-out: KRAS G13D FRET data IC50

Sequence of KRAS G13C (P01116 1-169 isoform P01116-2 G13C): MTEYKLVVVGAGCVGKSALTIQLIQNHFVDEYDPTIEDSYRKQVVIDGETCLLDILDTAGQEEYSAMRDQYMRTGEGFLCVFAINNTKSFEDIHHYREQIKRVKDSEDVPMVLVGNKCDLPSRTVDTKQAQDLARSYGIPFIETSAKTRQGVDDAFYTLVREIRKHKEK
Sequence of KRAS G13C (P62937 whole entry): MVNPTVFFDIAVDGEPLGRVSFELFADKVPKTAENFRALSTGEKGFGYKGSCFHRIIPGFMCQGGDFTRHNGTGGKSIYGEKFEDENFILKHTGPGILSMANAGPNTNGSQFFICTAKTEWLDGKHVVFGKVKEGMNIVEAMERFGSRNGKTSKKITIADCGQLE
Sequence of NRAS G12C (P01111 whole entry G12C): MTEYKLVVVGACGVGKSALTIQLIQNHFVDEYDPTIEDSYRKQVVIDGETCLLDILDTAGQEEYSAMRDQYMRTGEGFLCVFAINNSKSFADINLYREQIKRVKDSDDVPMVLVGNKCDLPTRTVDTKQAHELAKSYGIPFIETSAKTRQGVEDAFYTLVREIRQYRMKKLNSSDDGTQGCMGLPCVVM
Sequence of NRAS G12C (P62937 whole entry): as the sequence (P62937 whole entry) above
Sequence of KRAS G12V (P01116 1-169 isoform P01116-2 G12V limits assumed): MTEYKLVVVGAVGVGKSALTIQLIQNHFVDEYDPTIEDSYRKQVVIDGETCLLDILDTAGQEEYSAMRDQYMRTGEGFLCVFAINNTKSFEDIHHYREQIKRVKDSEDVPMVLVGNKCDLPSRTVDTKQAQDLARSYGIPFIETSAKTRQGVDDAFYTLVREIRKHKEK
Sequence of KRAS G12V (P62937 whole entry): as the sequence (P62937 whole entry) above
Sequence of KRAS WT (P01116 1-169 isoform P01116-2 limits assumed): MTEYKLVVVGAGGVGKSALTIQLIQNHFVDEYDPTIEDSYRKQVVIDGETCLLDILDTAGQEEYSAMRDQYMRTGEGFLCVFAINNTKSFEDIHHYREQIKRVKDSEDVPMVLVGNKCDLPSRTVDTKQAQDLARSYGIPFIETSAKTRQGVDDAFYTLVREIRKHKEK
Sequence of KRAS WT (P62937 whole entry): as the sequence (P62937 whole entry) above
Sequence of KRAS G12D (P01116 1-169 isoform P01116-2 G12D limits assumed): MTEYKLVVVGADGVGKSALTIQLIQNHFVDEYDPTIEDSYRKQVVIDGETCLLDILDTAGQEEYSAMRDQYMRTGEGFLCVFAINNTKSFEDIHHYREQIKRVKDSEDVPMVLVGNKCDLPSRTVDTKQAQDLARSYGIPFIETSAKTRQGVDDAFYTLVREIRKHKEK
Sequence of KRAS G12D (P62937 whole entry): as the sequence (P62937 whole entry) above
Sequence of KRAS G13D (P01116 1-169 isoform P01116-2 G13D limits assumed): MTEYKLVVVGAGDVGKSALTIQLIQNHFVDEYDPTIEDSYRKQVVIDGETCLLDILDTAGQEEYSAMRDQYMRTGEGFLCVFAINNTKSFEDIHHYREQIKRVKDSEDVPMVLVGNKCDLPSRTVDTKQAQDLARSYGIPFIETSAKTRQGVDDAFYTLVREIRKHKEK
Sequence of KRAS G13D (P62937 whole entry): as the sequence (P62937 whole entry) above
Sequence of KRAS G12S (P01116 1-169 isoform P01116-2 G12S limits assumed): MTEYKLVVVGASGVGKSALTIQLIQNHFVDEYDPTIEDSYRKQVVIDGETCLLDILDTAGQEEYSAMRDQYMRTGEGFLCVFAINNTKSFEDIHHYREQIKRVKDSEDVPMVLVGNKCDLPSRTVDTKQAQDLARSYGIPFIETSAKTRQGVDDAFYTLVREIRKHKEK
Sequence of KRAS G12S (P62937 whole entry): as the sequence (P62937 whole entry) above
Sequence of KRAS G12C (P01116 1-169 isoform P01116-2 G12C): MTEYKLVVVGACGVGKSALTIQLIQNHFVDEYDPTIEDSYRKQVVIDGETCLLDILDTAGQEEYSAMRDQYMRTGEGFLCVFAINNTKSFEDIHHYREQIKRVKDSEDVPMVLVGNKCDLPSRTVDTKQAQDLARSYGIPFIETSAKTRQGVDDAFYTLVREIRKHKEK
Sequence of KRAS G12C (P62937 whole entry): as the sequence (P62937 whole entry) above

Row | Structure (SMILES) | EC50 ([1]; read-out: H358 pERK EC50) | IC50 (KRAS G12C; read-out: FRET G12C IC50) | IC50 (KRAS G12C; read-out: KRAS G12C FRET data, IC50) | IC50 (KRAS G12D; read-out: FRET G12D IC50) | IC50 (KRAS G12D; [2]) | IC50 (KRAS G12S) | IC50 (KRAS G12V; [3]) | IC50 (KRAS G12V; read-out: FRET G12V IC50) | IC50 (KRAS G13C; read-out: FRET G13C IC50) | IC50 (KRAS G13C; read-out: KRAS G13C FRET data, IC50) | IC50 (KRAS G13D; read-out: FRET G13D IC50) | IC50 (KRAS WT) | IC50 (NRAS G12C) | EC50 [1, 4] | IC50 (KRAS G12C; [5]) | IC50 (KRAS G13C; [6]) | IC50 (KRAS G13D; [7])
1 | CCn1c(-c2cccnc2[C@H](C)OC)c2c3cc(ccc31)-c1cc(O)cc(c1)C[C@H](NC(=O)[C@H](C(C)C)N(C)C(=O)[C@H]1CCN(C(=O)OC)C1)C(=O)N1CCC[C@H](N1)C(=O)OCC(C)(C)C2 (atropisomer, axis not shown) [Example A3] | 18 nM | 29 nM | 1000 to 10000 nM and 10 to 100 nM | 545 nM | 100 to 1000 nM and > 10000 nM | 1000 to 10000 nM and 10 to 100 nM | 1000 to 10000 nM and 10 to 100 nM | 43 nM | 99 nM | 1000 to 10000 nM and 10 to 100 nM | 160 nM | 1000 to 10000 nM and 10 to 100 nM | 1000 to 10000 nM and 10 to 100 nM |  |  |  | 
2 | CCn1c(-c2cccnc2[C@H](C)OC)c2c3cc(ccc31)-c1csc(n1)C[C@H](NC(=O)[C@H](C(C)C)N(C)C(=O)N(C)C1CN(C(=O)/C=C/C(C)(C)O)C1)C(=O)N1CCC[C@H](N1)C(=O)OCC(C)(C)C2 (atropisomer, axis not shown) [Example A350] |  |  |  |  | 1000 to 10000 nM | 100 to 1000 nM | 100 to 1000 nM |  |  |  |  | 100 to 1000 nM | 10 to 100 nM | < 5000 nM | 10 to 100 nM | 100 to 1000 nM | 100 to 1000 nM
3 | CCn1c(-c2cccnc2[C@H](C)OC)c2c3cc(ccc31)-c1cccc(c1)C[C@H](NC(=O)[C@@H](COC1CN(C(=O)C#C[C@@H]3COCCN3C)C1)C(C)C)C(=O)N1CCC[C@H](N1)C(=O)OCC(C)(C)C2 (atropisomer, axis not shown) [Example A648] |  |  |  |  | > 10000 nM | > 10000 nM | > 10000 nM |  |  |  |  | 1000 to 10000 nM | 100 to 1000 nM | < 5000 nM | 100 to 1000 nM | 1000 to 10000 nM | > 10000 nM
4 | C=CC(=O)N1CC[C@]2(C1)OCN(C(=O)N(C)[C@H](C(=O)N[C@H]1Cc3cccc(n3)-c3ccc4c(c3)c(c(-c3cccnc3[C@H](C)OC)n4CC)CC(C)(C)COC(=O)[C@@H]3CCCN(N3)C1=O)C(C)C)C2=O (atropisomer, axis not shown) [Example A652] |  |  |  |  | > 10000 nM | 1000 to 10000 nM | 1000 to 10000 nM |  |  |  |  | 1000 to 10000 nM | 100 to 1000 nM | < 5000 nM | 100 to 1000 nM | 100 to 1000 nM | 1000 to 10000 nM
5 | C=CC(=O)N1CC[C@H](C(=O)N(C)[C@H](C(=O)N[C@H]2Cc3nsc(n3)-c3ccc4c(c3)c(c(-c3cccnc3[C@H](C)OC)n4CC)CC(C)(C)COC(=O)[C@@H]3CCCN(N3)C2=O)C(C)C)C1 (atropisomer, axis not shown) [Example A694] |  |  |  |  | 1000 to 10000 nM | 1000 to 10000 nM | 1000 to 10000 nM |  |  |  |  | 1000 to 10000 nM | 100 to 1000 nM | < 5000 nM | 100 to 1000 nM | 100 to 1000 nM | 1000 to 10000 nM
6 | CCn1c(-c2cccnc2[C@H](C)OC)c2c3cc(ccc31)-c1csc(n1)C[C@H](NC(=O)[C@H](COC1CN(C(=O)C#CC(C)(C)N(C)C)C1)OC)C(=O)N1CCC[C@H](N1)C(=O)OCC(C)(C)C2 (atropisomer, axis not shown) [Example A705] |  |  |  |  | > 10000 nM | 1000 to 10000 nM | 1000 to 10000 nM |  |  |  |  | 1000 to 10000 nM | < 10 nM | < 5000 nM | < 10 nM | 1000 to 10000 nM | > 10000 nM
7 | C=CC(=O)N1CC(OC[C@H](C(=O)N[C@H]2Cc3cc(F)cc(c3)-c3ccc4c(c3)c(c(-c3cccnc3[C@H](C)OC)n4CC)CC(C)(C)COC(=O)[C@@H]3CCCN(N3)C2=O)C(C)C)C1 (atropisomer, axis not shown) [Example A725] |  |  |  |  | > 10000 nM | 1000 to 10000 nM | 1000 to 10000 nM |  |  |  |  | 1000 to 10000 nM | 100 to 1000 nM | < 5000 nM | 100 to 1000 nM | 100 to 1000 nM | 1000 to 10000 nM
8 | C=CC(=O)N1CC[C@@H](N(C)C(=O)N(C)[C@H](C(=O)N[C@H]2Cc3nc(cs3)-c3ccc4c(c3)c(c(-c3cccnc3[C@H](C)OC)n4CC(F)(F)F)CC(C)(C)COC(=O)[C@@H]3CCCN(N3)C2=O)C(C)C)C1 (atropisomer, axis not shown) [Example A728] |  |  |  |  | 1000 to 10000 nM | 100 to 1000 nM | 100 to 1000 nM |  |  |  |  | 100 to 1000 nM | 100 to 1000 nM | < 5000 nM | 100 to 1000 nM | 100 to 1000 nM | 1000 to 10000 nM
9 | C=CC(=O)N1CC[C@@]2(CCN2C(=O)N(C)[C@H](C(=O)N[C@H]2Cc3nc(cs3)-c3ccc4c(c3)c(c(-c3cccnc3[C@H](C)OC)n4CC)CC(C)(C)COC(=O)C3CCCN(N3)C2=O)N(C)C)C1 (single isomer, unassigned) [Example A661] |  |  |  |  | 1000 to 10000 nM | 100 to 1000 nM | 1000 to 10000 nM |  |  |  |  | 100 to 1000 nM | 10 to 100 nM | < 5000 nM | 10 to 100 nM | 100 to 1000 nM | 100 to 1000 nM
10 | C=CC(=O)N1CC[C@H](C(=O)N(C)[C@H](C(=O)N[C@H]2Cc3cc(O)cc(c3)-c3ccc4c(c3)c(c(-c3cccnc3)n4C3CC3)CC(C)(C)COC(=O)[C@@H]3CCCN(N3)C2=O)C(C)C)C1 [Example A160] |  |  |  |  | > 10000 nM | > 10000 nM | > 10000 nM |  |  |  |  | > 10000 nM | 1000 to 10000 nM | < 5000 nM | 100 to 1000 nM | > 10000 nM | > 10000 nM
11 | C=CC(=O)N(C)C1CCN(C(=O)N(C)[C@H](C(=O)N[C@H]2Cc3nc(cs3)-c3ccc4c(c3)c(c(-c3cccnc3[C@H](C)OC)n4CC)CC(C)(C)COC(=O)[C@@H]3CCCN(N3)C2=O)C(C)C)C1 (stereo partly drawn) [Example A384] |  |  |  |  |  |  |  |  |  |  |  |  | 10 to 100 nM | < 5000 nM | 10 to 100 nM |  | 100 to 1000 nM
12 | CCn1c(-c2cccnc2[C@H](C)OC)c2c3cc(ccc31)N1CCO[C@@H](C[C@H](NC(=O)[C@H](C(C)C)N(C)C(=O)[C@@]3(F)CCN(C(=O)C#CC(C)(C)N4CCC4)C3)C(=O)N3CCC[C@H](N3)C(=O)OCC(C)(C)C2)C1 [Example A726] |  |  |  |  | > 10000 nM | 1000 to 10000 nM | 1000 to 10000 nM |  |  |  |  | 1000 to 10000 nM | 10 to 100 nM | < 5000 nM |  | 100 to 1000 nM | 
